In ChEMBL document CHEMBL3588782, “Synthesis, antiribosomal and antibacterial activity of 4-O-glycopyranosyl paromomycin aminoglycoside antibiotics” (Medchemcomm, 2014):
≈ marks a conversion by molar mass, not a printed value.

Tests used:
[1] = Inhibition of human ribosome containing eukaryotic ribosomal RNA A-site Cyt14 allele in rabbit reticulocyte lysates assessed as reduction in ribosome-mediated protein synthesis in presence of S-30 extracts by fire fly luciferase synthesis based cell-free translation assay
[2] = tested on: Escherichia coli; test: Antibacterial activity against Escherichia coli isolate 003 by broth microdilution assay; format: functional
[3] = tested on: Staphylococcus aureus; test: Antibacterial activity against methicillin-resistant Staphylococcus aureus isolate AG 039 by broth microdilution assay; format: functional
[4] = Inhibition of Mycobacterium smegmatis ribosome containing ribosomal RNA A-site G1491A mutant in rabbit reticulocyte lysates assessed as reduction in ribosome-mediated protein synthesis in presence of S-30 extracts by fire fly luciferase synthesis based cell-free translation assay; parameters: species or system Mycolicibacterium smegmatis
[5] = tested on: Escherichia coli; test: Antibacterial activity against Escherichia coli isolate 006 by broth microdilution assay; format: functional
[6] = molecular target: 80S Ribosome; test: Inhibition of human ribosome containing eukaryotic wild type ribosomal RNA A-site in rabbit reticulocyte lysates assessed as reduction in ribosome-mediated protein synthesis in presence of S-30 extracts by fire fly luciferase synthesis based cell-free translation assay
[7] = Inhibition of Mycobacterium smegmatis ribosome containing ribosomal RNA A-site A1408G mutant in rabbit reticulocyte lysates assessed as reduction in ribosome-mediated protein synthesis in presence of S-30 extracts by fire fly luciferase synthesis based cell-free translation assay; parameters: species or system Mycolicibacterium smegmatis
[8] = tested on: Staphylococcus aureus; test: Antibacterial activity against methicillin-resistant Staphylococcus aureus isolate AG 038 by broth microdilution assay; format: functional
[9] = tested on: Staphylococcus aureus; test: Antibacterial activity against methicillin-resistant Staphylococcus aureus isolate AG 044 by broth microdilution assay; format: functional
[10] = tested on: Escherichia coli; test: Antibacterial activity against Escherichia coli isolate 055 by broth microdilution assay; format: functional
[11] = Inhibition of Mycobacterium smegmatis ribosome containing ribosomal RNA A-site G1491C mutant in rabbit reticulocyte lysates assessed as reduction in ribosome-mediated protein synthesis in presence of S-30 extracts by fire fly luciferase synthesis based cell-free translation assay; parameters: species or system Mycolicibacterium smegmatis
[12] = tested on: Staphylococcus aureus; test: Antibacterial activity against methicillin-resistant Staphylococcus aureus isolate AG 042 by broth microdilution assay; format: functional
[13] = Inhibition of human ribosome containing eukaryotic ribosomal RNA A-site A1555G mutant in rabbit reticulocyte lysates assessed as reduction in ribosome-mediated protein synthesis in presence of S-30 extracts by fire fly luciferase synthesis based cell-free translation assay
[14] = tested on: Escherichia coli; test: Antibacterial activity against Escherichia coli isolate 001 by broth microdilution assay; format: functional
[15] = molecular target: Bacterial 70S ribosome; test: Inhibition of Mycobacterium smegmatis ribosome containing wild type ribosomal RNA A-site in rabbit reticulocyte lysates assessed as reduction in ribosome-mediated protein synthesis in presence of S-30 extracts by fire fly luciferase synthesis based cell-free translation assay; parameters: species or system Mycolicibacterium smegmatis
[16] = tested on: Ribosome; test: Inhibition of ribosome-mediated protein synthesis in rabbit reticulocyte lysates in presence of S-30 extracts by fire fly luciferase synthesis based cell-free translation assay; parameters: species or system Oryctolagus cuniculus

Row | SMILES | IC50 [1] | MIC [2] | MIC [3] | IC50 [4] | MIC [5] | IC50 [6] | IC50 [7] | MIC [8] | MIC [9] | MIC [10] | IC50 [11] | MIC [12] | IC50 [13] | MIC [14] | IC50 [15] | IC50 [16]
1 | NC[C@@H]1O[C@H](O[C@H]2[C@@H](O)[C@H](O[C@@H]3[C@@H](O)[C@H](N)C[C@H](N)[C@H]3O[C@H]3O[C@H](CO)[C@@H](O[C@@H]4O[C@H](CO)[C@@H](N)[C@H](O)[C@H]4O)[C@H](O)[C@H]3N)O[C@@H]2CO)[C@H](N)[C@@H](O)[C@@H]1O | 21.43 µg/mL | > 64 µg/mL | > 64 µg/mL | 4.87 µg/mL | 16 µg/mL (≈ 20.6 µM) | 9810 nM | 2.39 µg/mL | 32 µg/mL (≈ 41.2 µM) | 32 µg/mL (≈ 41.2 µM) | > 64 µg/mL | 32.03 µg/mL | > 64 µg/mL | 17.38 µg/mL | > 64 µg/mL | 373 nM | 32.41 µg/mL
2 | NC[C@@H]1O[C@H](O[C@H]2[C@@H](O)[C@H](O[C@@H]3[C@@H](O)[C@H](N)C[C@H](N)[C@H]3O[C@H]3O[C@H](CO)[C@@H](O[C@H]4O[C@H](CO)[C@H](O)[C@H](O)[C@H]4O)[C@H](O)[C@H]3N)O[C@@H]2CO)[C@H](N)[C@@H](O)[C@@H]1O | 35.63 µg/mL | > 128 µg/mL | 128 µg/mL (≈ 165 µM) | 18.68 µg/mL | 32 µg/mL (≈ 41.1 µM) | 2870 nM | 12.01 µg/mL | 64 µg/mL (≈ 82.3 µM) | 64 µg/mL (≈ 82.3 µM) | > 128 µg/mL | 118.67 µg/mL | 64 µg/mL (≈ 82.3 µM) | 14.95 µg/mL | > 128 µg/mL | 707 nM | 23.75 µg/mL
